Laboratory results: PubChem BioAssay AID2060888 (Molecular Pharmacology Branch, DTP, NCI, 2025)

Tested on: 695427-040-R-J1-PDC complex spheroid viability
Assay: Anticancer human tumor 695427-040-R-J1-PDC patient-derived colon adenocarcinoma cell line growth inhibition [RAS]
Conditions: for IC50: curve of first compound; for viability, T/C: stronger effect = lower value
From the text: RAS pathway inhibitors in Combinations in Complex Spheroids
A high-throughput screen of multi-cell type tumor spheroids was designed to identify active combinations of RAS pathway inhibitors and targeted small molecules. Complex spheroids include a stromal component modeled by human endothelial cells (HUVEC) and fibroblasts modeled by human mesenchymal stem cells (MSCs). The concentration ranges selected for each drug and investigational agent were based upon clinically achievable concentrations if the clinical Cmax of the agent was known.
Compounds. The drugs and investigational agents: abemaciclib (NSC768073), cobimetinib (NSC768068), divarasib (GDC6063, NSC841802), docetaxel (NSC628503), GDC-1971 (RLY-1971, NSC841576), gemcitabine (NSC613327), inavolisib (NSC800729), ipatasertib (NSC767898), KB-0742 (NSC834161), MRTX-1133 (NSC836407), osimertinib (NSC779217), RMC-4630 (NSC839698), RMC-6236 (NSC851965), RMC-6291 (NSC852671), Ro-3306 (NSC812927), sapanisertib (NSC764658), SN-38 (NSC673596), staurosporine (NSC755774), SY5609 (NSC837396), and tovorafenib (DAY101, NSC766906), were obtained from the National Cancer Institute (NCI) Developmental Therapeutics Program Chemical Repository. The FDA-approved anticancer drug set is available from the NCI Developmental Therapeutics Program. […] The stock solutions were prepared in dimethyl sulfoxide (DMSO, Sigma-Aldrich, St. Louis, MO, cat. D2650) at 800-fold the tested concentration and stored at -70 degrees C prior to their use. All drugs and investigational agents were tested over a range starting from a high concentration at or near the clinical Cmax and decreasing in half-log increments. If the clinical Cmax for an agent had not been determined, the highest concentration tested was 10 microM.
Cell Culture. All cells were maintained in an incubator at 37 degrees C and 5% CO2 with 95% humidity. The PDC lines were cultured according to standard operating procedures established by the NCI PDMR. All PDCs were thawed and cultured in Matrigel-coated flasks prepared with a working solution of 1X Ham's F-12 nutrient mix, without supplementation (Invitrogen, Waltham, MA, cat. 11765054), 100 U/mL penicillin-streptomycin (Invitrogen, cat. 15140122), and 2.5% Matrigel (Corning Inc., Corning, NY, cat. 354248) for the first three passages. The 362531-283-R-J2-PDC and 782815-120-R-J1-PDC lines were cultured in 6C/Colon 1B media, which includes advanced DMEM/F-12 (Thermo Fisher Scientific, cat. 12634028), 10 mM HEPES (Thermo Fisher Scientific, cat. 15630080), 1X GlutaMAX supplement (Thermo Fisher Scientific, cat. 35050061), 0.1 mg/mL primocin (InvivoGen, San Diego, CA, cat. ant-pm-2), 10% defined fetal bovine serum, heat inactivated (HyClone Laboratories Inc., Logan, UT, cat. SH30070.03HI), 50% L-WRN conditioned media (ATCC, cat. CRL-3276), 1.25 mM N-Acetyl-L-cysteine (Sigma-Aldrich, cat. A9165), 10 mM nicotinamide (Sigma-Aldrich, cat. N0636), 1X B-27 supplement (Thermo Fisher Scientific, cat. 17504044), 1X N-2 supplement (Thermo Fisher Scientific, cat. 17502048), 50 ng/mL human EGF (Thermo Fisher Scientific, cat. PHG0311), and 10 microM Y-27632 dihydrochloride (Tocris Bioscience, cat. 1254). The K12877-001-R-J1-PDC line was cultured in 6I media, which includes all 6C/Colon 1B media plus 10 ng/mL human FGF-10 (PeproTech, cat. 100-26), 1 ng/mL human FGF-2 (PeproTech, cat. 100-18B), 1 µM prostaglandin E2 (Tocris Bioscience, cat. 2296), […] hydrocortisone (Sigma-Aldrich, cat. H4001), and […] bovine insulin (Sigma-Aldrich, cat. I6634). The K86415-001-R-J1-PDC line was cultured in 6D media, which includes all 6C/Colon 1B media components minus the L-WRN conditioned media. The 485176-168-R4-J1-PDC was cultured in PANC media, which includes all 6C/Colon 1B media plus 100 ng/mL human FGF-10 (PeproTech, cat. 100-26), 500 nM SB-431542 (Selleckchem, cat. S1067), and 10 nM gastrin (Tocris Bioscience, cat. 3006). […]
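Further: viability read after seven days of drug exposure.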
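Wherever viability, T/C is given: 100% = DMSO vehicle control viability.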

CCN1CCN(Cc2ccc(Nc3ncc(F)c(-c4cc(F)c5nc(C)n(C(C)C)c5c4)n3)nc2)CC1 + CCn1c(-c2cccnc2C(C)OC)c2c3cc(ccc31)N1CCOC(CC(NC(=O)C(C(C)C)N(C)C(=O)C3(F)CCN(C(=O)C#CC(C)(C)N(C)C)CC3)C(=O)N3CCCC(N3)C(=O)OCC(C)(C)C2)C1
IC50 (second compound 0.000949 µM): > 1000 nM | IC50 (second compound 0.003 µM): > 1000 nM | IC50 (second compound 0.00949 µM): > 1000 nM | IC50 (second compound 0.03 µM): > 1000 nM | IC50 (second compound 0.0949 µM): > 1000 nM | IC50 (second compound 0.3 µM): > 1000 nM | viability, T/C (second compound 0.000949 µM, first compound 0.00316 µM): 109% | viability, T/C (second compound 0.000949 µM, first compound 0.01 µM): 88.1% | viability, T/C (second compound 0.000949 µM, first compound 0.0316 µM): 84.9% | viability, T/C (second compound 0.000949 µM, first compound 0.1 µM): 74.2% | viability, T/C (second compound 0.000949 µM, first compound 0.316 µM): 99.1% | viability, T/C (second compound 0.000949 µM, first compound 1 µM): 87.1% | viability, T/C (second compound 0.003 µM, first compound 0.00316 µM): 100% | viability, T/C (second compound 0.003 µM, first compound 0.01 µM): 86.3% | viability, T/C (second compound 0.003 µM, first compound 0.0316 µM): 86.3% | viability, T/C (second compound 0.003 µM, first compound 0.1 µM): 82.3% | viability, T/C (second compound 0.003 µM, first compound 0.316 µM): 86.2% | viability, T/C (second compound 0.003 µM, first compound 1 µM): 93% | viability, T/C (second compound 0.00949 µM, first compound 0.00316 µM): 118% | viability, T/C (second compound 0.00949 µM, first compound 0.01 µM): 84.3% | viability, T/C (second compound 0.00949 µM, first compound 0.0316 µM): 87.1% | viability, T/C (second compound 0.00949 µM, first compound 0.1 µM): 88.9% | viability, T/C (second compound 0.00949 µM, first compound 0.316 µM): 91.2% | viability, T/C (second compound 0.00949 µM, first compound 1 µM): 53.9% | viability, T/C (second compound 0.03 µM, first compound 0.00316 µM): 96.6% | viability, T/C (second compound 0.03 µM, first compound 0.01 µM): 88.1% | viability, T/C (second compound 0.03 µM, first compound 0.0316 µM): 74.4% | viability, T/C (second compound 0.03 µM, first compound 0.1 µM): 84.4% | viability, T/C (second compound 0.03 µM, first compound 0.316 µM): 107% | viability, T/C (second compound 0.03 µM, first compound 1 µM): 90.7% | viability, T/C (second compound 0.0949 µM, first compound 0.00316 µM): 99.2% | viability, T/C (second compound 0.0949 µM, first compound 0.01 µM): 79% | viability, T/C (second compound 0.0949 µM, first compound 0.0316 µM): 91.8% | viability, T/C (second compound 0.0949 µM, first compound 0.1 µM): 87.3% | viability, T/C (second compound 0.0949 µM, first compound 0.316 µM): 60.6% | viability, T/C (second compound 0.0949 µM, first compound 1 µM): 76.6% | viability, T/C (second compound 0.3 µM, first compound 0.00316 µM): 87.8% | viability, T/C (second compound 0.3 µM, first compound 0.01 µM): 83.2% | viability, T/C (second compound 0.3 µM, first compound 0.0316 µM): 84.9% | viability, T/C (second compound 0.3 µM, first compound 0.1 µM): 79% | viability, T/C (second compound 0.3 µM, first compound 0.316 µM): 65.9% | viability, T/C (second compound 0.3 µM, first compound 1 µM): 60.6%

CCN1CCN(Cc2ccc(Nc3ncc(F)c(-c4cc(F)c5nc(C)n(C(C)C)c5c4)n3)nc2)CC1 + C#Cc1c(F)ccc2cc(O)cc(-c3ncc4c(N5CC6CCC(C5)N6)nc(OCC56CCCN5CC(F)C6)nc4c3F)c12
IC50 (second compound 0.0316 µM): > 1000 nM | IC50 (second compound 0.1 µM): > 1000 nM | IC50 (second compound 0.316 µM): > 1000 nM | IC50 (second compound 1 µM): > 1000 nM | IC50 (second compound 3.16 µM): > 1000 nM | IC50 (second compound 10 µM): < 3.16 nM | viability, T/C (second compound 0.0316 µM, first compound 0.00316 µM): 94.9% | viability, T/C (second compound 0.0316 µM, first compound 0.01 µM): 102% | viability, T/C (second compound 0.0316 µM, first compound 0.0316 µM): 85.8% | viability, T/C (second compound 0.0316 µM, first compound 0.1 µM): 88.4% | viability, T/C (second compound 0.0316 µM, first compound 0.316 µM): 100% | viability, T/C (second compound 0.0316 µM, first compound 1 µM): 106% | viability, T/C (second compound 0.1 µM, first compound 0.00316 µM): 93% | viability, T/C (second compound 0.1 µM, first compound 0.01 µM): 92.9% | viability, T/C (second compound 0.1 µM, first compound 0.0316 µM): 90.5% | viability, T/C (second compound 0.1 µM, first compound 0.1 µM): 79.4% | viability, T/C (second compound 0.1 µM, first compound 0.316 µM): 91.6% | viability, T/C (second compound 0.1 µM, first compound 1 µM): 96.3% | viability, T/C (second compound 0.316 µM, first compound 0.00316 µM): 83.1% | viability, T/C (second compound 0.316 µM, first compound 0.01 µM): 85.3% | viability, T/C (second compound 0.316 µM, first compound 0.0316 µM): 78.1% | viability, T/C (second compound 0.316 µM, first compound 0.1 µM): 78.6% | viability, T/C (second compound 0.316 µM, first compound 0.316 µM): 77.7% | viability, T/C (second compound 0.316 µM, first compound 1 µM): 85.6% | viability, T/C (second compound 1 µM, first compound 0.00316 µM): 75.2% | viability, T/C (second compound 1 µM, first compound 0.01 µM): 68.1% | viability, T/C (second compound 1 µM, first compound 0.0316 µM): 61% | viability, T/C (second compound 1 µM, first compound 0.1 µM): 60.5% | viability, T/C (second compound 1 µM, first compound 0.316 µM): 74.1% | viability, T/C (second compound 1 µM, first compound 1 µM): 71.3% | viability, T/C (second compound 3.16 µM, first compound 0.00316 µM): 53.3% | viability, T/C (second compound 3.16 µM, first compound 0.01 µM): 52.9% | viability, T/C (second compound 3.16 µM, first compound 0.0316 µM): 51.2% | viability, T/C (second compound 3.16 µM, first compound 0.1 µM): 48.2% | viability, T/C (second compound 3.16 µM, first compound 0.316 µM): 50.6% | viability, T/C (second compound 3.16 µM, first compound 1 µM): 62% | viability, T/C (second compound 10 µM, first compound 0.00316 µM): 41.1% | viability, T/C (second compound 10 µM, first compound 0.01 µM): 45.2% | viability, T/C (second compound 10 µM, first compound 0.0316 µM): 36.4% | viability, T/C (second compound 10 µM, first compound 0.1 µM): 33.1% | viability, T/C (second compound 10 µM, first compound 0.316 µM): 30.8% | viability, T/C (second compound 10 µM, first compound 1 µM): 32.6%
